The test has as its target glucocorticoid receptor (GAL4 DBD-GR) (Homo sapiens (Human), UniProt P04150). Nature of the test: GR cell-based assays (GRE agonist / GRE antagonist), CHO-Gal4/GR luciferase reporter. In short, it runs like this:
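CHO cells stably carrying GAL4 DBD-GR ligand-binding-domain fusion and a GAL4-UAS firefly luciferase reporter were treated in Opti-MEM with 8 half-log concentrations from 10 μM to 0.003 μM (0.5% DMSO, quadruplicates). Antagonist mode measured repression of beclomethasone-induced signal. Luminescence after lysis gave EC50 or IC50.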
A general note: In a reporter assay the amount or activity of a reporter protein is the signal.

Where [1] appears, read: CHO-Gal4/GR reporter cells, agonist mode (EC50) or antagonist mode against beclometasone (IC50), 6 hour incubation.

SMILES strings stand for the structures. Read-outs that look alike come from different tables or passages of the source.

Here are results for ten compounds from patent US12358907B2, “Substituted pyrrolidine amides III” (GRÜNENTHAL GMBH, priority 2019, dated 2025).

In general, IC50 refers to the concentration that gives 50% inhibition.

Chain of glucocorticoid receptor (GAL4 DBD-GR) (P04150 524-758): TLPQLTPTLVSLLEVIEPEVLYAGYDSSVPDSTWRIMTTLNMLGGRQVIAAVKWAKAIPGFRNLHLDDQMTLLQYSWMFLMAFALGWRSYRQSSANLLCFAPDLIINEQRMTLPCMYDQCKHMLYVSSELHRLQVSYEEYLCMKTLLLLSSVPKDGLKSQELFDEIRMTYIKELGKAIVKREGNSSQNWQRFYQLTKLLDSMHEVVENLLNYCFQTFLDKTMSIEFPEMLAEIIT

As to `O=C(N[C@H]1[C@H](CC2CC2)C(=O)N(c2ccc3c(cnn3-c3ccc(F)cc3)c2)[C@@H]1c1ccccc1)C1CC1` (racemic) [Example 121, N-[rac-(2R,3S,4S)-4-(Cyclopropyl-methyl)-1-[1-(4-fluorophenyl)-1H-indazol-5-yl]-5-oxo-2-phenyl-pyrrolidin-3-yl]-cyclopropanecarboxylic acid amide], the IC50 (read-out: IC50 or EC50) is below 100 nM.
Take `Cn1cc(C[C@@H]2C(=O)N(c3ccc4c(cnn4-c4ccc(F)cc4)c3)[C@H](c3ccccc3)[C@H]2NC(=O)C2CC2)cn1` [Example 139a, N-((2R,3S,4S)-1-(1-(4-fluorophenyl)-1H-indazol-5-yl)-4-((1-methyl-1H-pyrazol-4-yl)methyl)-5-oxo-2-phenylpyrrolidin-3-yl)cyclopropanecarboxamide]: the IC50 (read-out: IC50 or EC50) was 1000 to 15000 nM.
Compound `CC1(C)C(=O)N(c2ccc3c(cnn3-c3ccc(F)cc3)c2)[C@H](c2ccccc2)[C@H]1NC(=O)c1ncccn1` [Example 43a, N-((2R,3S)-1-(1-(4-fluorophenyl)-1H-indazol-5-yl)-4,4-dimethyl-5-oxo-2-phenylpyrrolidin-3-yl)pyrimidine-2-carboxamide] had an IC50 under setting [1] below 100 nM.
With `O=C(N[C@@H]1[C@@H](c2ccccc2)N(c2ccc3c(cnn3-c3ccc(F)cc3)c2)C(=O)[C@@H]1Cc1nccs1)C1CC1` [Example 150, N-((2R,3S,4R)-1-(1-(4-fluorophenyl)-1H-indazol-5-yl)-5-oxo-2-phenyl-4-(thiazol-2-ylmethyl)pyrrolidin-3-yl)cyclopropanecarboxamide], where the note is “read-out: IC50 or EC50”, the IC50 lay in the range of 100 to 1000 nM.
Take `O=C(N[C@@H]1[C@@H](c2ccccc2)N(c2ccc3c(cnn3-c3ccc(F)cc3)c2)C(=O)[C@@H]1CC(F)F)C1CC1` [Example 132, N-((2R,3S,4R)-4-(2,2-difluoroethyl)-1-(1-(4-fluorophenyl)-1H-indazol-5-yl)-5-oxo-2-phenylpyrrolidin-3-yl)cyclopropanecarboxamide]: the IC50 under setting [1] was below 100 nM.
Regarding `C[C@@]1(c2ccc(Cl)s2)[C@@H](NC(=O)C2CC2)CC(=O)N1c1ccc2c(cnn2-c2ccc(F)cc2)c1` [Example 151, N-((2S,3S)-2-(5-chlorothiophen-2-yl)-1-(1-(4-fluorophenyl)-1H-indazol-5-yl)-2-methyl-5-oxopyrrolidin-3-yl)cyclopropanecarboxamide], the IC50 (read-out: IC50 or EC50) is 100 to 1000 nM.
With `Cc1cccc([C@@H]2[C@@H](NC(=O)c3ncccn3)[C@@H](C)C(=O)N2c2ccc3c(cnn3-c3ccc(F)cc3)c2)c1` (racemic) [Example 74, N-[rac-(2R,3S,4R)-1-[1-(4-Fluorophenyl)-1H-indazol-5-yl]-4-methyl-2-m-tolyl-5-oxo-pyrrolidin-3-yl]-pyrimidine-2-carboxylic acid amide], the IC50 (read-out: IC50 or EC50) was 100 to 1000 nM.
As to `O=C(N[C@@H]1[C@@H](c2ccccc2)N(c2ccc3c(cnn3-c3ccc(F)cc3)n2)C(=O)C12CC2)C1CC1` (racemic) [Example 33, N-[rac-((6R,7S)-5-(1-(4-fluorophenyl)-1H-pyrazolo[4,3-b]pyridin-5-yl)-4-oxo-6-phenyl-5-azaspiro[2.4]heptan-7-yl)]cyclopropanecarboxamide], the IC50 (read-out: IC50 or EC50) fell in the range of 1000 to 15000 nM.
The same measure, in the same setting: the figure for `CC1C(=O)N(c2ccc3c(cnn3-c3ccc(F)cc3)c2)C(c2ccccc2Cl)C1NC(=O)c1ccn(C)n1` (racemic) [Example 94, N-[rac-(2R,3S,4R)-2-(2-Chlorophenyl)-1-[1-(4-fluorophenyl)-1H-indazol-5-yl]-4-methyl-5-oxo-pyrrolidin-3-yl]-1-methyl-1H-pyrazole-3-carboxylic acid amide] is below 100 nM; for `CC1(C)C(=O)N(c2ccc3c(cnn3-c3ccc(F)cc3)c2)[C@H](c2ccccc2)[C@H]1NS(C)(=O)=O` [Example 34a, N-((2R,3S)-1-(1-(4-fluorophenyl)-1H-indazol-5-yl)-4,4-dimethyl-5-oxo-2-phenylpyrrolidin-3-yl)methanesulfonamide] it is below 100 nM.
